Data on 13 compounds can be found in paper PMC6152084, “Synthesis of New Hydrazone Derivatives for MAO Enzymes Inhibitory Activity” (Molecules : A Journal of Synthetic Chemistry and Natural …, 2017).

Each structure is given as a SMILES string.

The target of one data set is T1, hMAO-B (Homo sapiens, UniProt P27338).
T1 construct: purchased Sigma-Aldrich (Steinheim, Germany)
T1 sequence (P27338 1-520): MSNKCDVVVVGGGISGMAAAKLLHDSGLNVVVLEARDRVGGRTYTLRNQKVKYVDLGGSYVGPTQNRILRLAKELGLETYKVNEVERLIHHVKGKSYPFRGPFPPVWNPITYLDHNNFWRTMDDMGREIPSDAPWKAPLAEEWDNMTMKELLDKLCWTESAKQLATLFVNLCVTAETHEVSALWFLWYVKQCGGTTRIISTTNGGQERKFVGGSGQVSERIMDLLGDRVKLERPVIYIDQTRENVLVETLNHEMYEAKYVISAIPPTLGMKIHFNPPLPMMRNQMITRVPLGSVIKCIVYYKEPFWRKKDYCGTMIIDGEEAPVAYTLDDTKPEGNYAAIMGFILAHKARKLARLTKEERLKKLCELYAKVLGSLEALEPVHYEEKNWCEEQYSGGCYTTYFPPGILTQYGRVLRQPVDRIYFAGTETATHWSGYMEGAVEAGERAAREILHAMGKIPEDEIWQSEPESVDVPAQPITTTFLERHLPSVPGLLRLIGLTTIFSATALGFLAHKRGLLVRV
Put plainly: MAO-B inhibition assay (in vitro fluorometric Amplex Red method). Type of data set: biochemical.

The target in a further data set is T2, hMAO-A (Homo sapiens, UniProt P21397).
T2 construct: purchased Sigma-Aldrich (Steinheim, Germany)
T2 sequence (P21397 1-527): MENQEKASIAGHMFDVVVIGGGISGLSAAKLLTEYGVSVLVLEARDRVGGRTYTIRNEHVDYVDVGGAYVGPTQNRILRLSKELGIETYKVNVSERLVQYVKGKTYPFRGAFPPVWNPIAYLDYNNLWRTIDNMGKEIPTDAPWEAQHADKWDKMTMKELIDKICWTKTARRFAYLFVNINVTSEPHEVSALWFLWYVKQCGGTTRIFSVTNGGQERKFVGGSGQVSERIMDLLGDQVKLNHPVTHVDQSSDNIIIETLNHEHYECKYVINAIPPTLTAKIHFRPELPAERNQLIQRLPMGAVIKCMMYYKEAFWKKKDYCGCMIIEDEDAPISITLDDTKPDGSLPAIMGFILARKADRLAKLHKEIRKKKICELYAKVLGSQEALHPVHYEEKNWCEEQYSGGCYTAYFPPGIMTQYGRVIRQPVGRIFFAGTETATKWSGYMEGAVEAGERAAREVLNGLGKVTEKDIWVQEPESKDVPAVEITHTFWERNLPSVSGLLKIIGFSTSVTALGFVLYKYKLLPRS
Put plainly: MAO-A inhibition assay (in vitro fluorometric Amplex Red method). In kind it is biochemical.

Regarding `CN(C)CCCN1CCN(c2ccc(C=NNc3ccccc3)cc2)CC1` [Compound 2n], the results for the “MAO-B Inhibition %” value at hMAO-B (10^−3 M) and at hMAO-B (10^−4 M) were 40.629 ± 0.933% and 29.068 ± 0.734%, respectively. For the same compound, the “MAO-A Inhibition %” value at hMAO-A (10^−3 M) was 64.435 ± 1.104%; on hMAO-A (10^−4 M), 36.154 ± 0.817%.
Consider `Fc1ccc(Oc2ccc(C=NNc3ccccc3)cc2)cc1` [Compound 2g, 1-(4-(4-Fluorophenoxy)benzylidene)-2-phenylhydrazine], for which the melting point lay in the range of 121.3 to 124.9 °C. Besides, 1000 µM produced 21.7 ± 0.52% inhibition against hMAO-B (10^−3 M). At hMAO-B (10^−4 M), this compound yielded an inhibition at 100 µM of 17.1 ± 0.412%. This compound came in with an inhibition at 1000 µM against hMAO-A (10^−3 M) of 54.5 ± 1%. In addition, the inhibition at 100 µM on hMAO-A (10^−4 M) was determined as 20.4 ± 0.469%.
The compound `COc1ccc(Sc2ccc(C=NNc3ccccc3)cc2)cc1` [Compound 2f, 1-(4-((4-Methoxyphenyl)thio)benzylidene)-2-phenylhydrazine] displayed a melting point of 178.1 to 184.3 °C. Moreover, at hMAO-B (10^−3 M), the inhibition at 1000 µM turned out to be 33.3 ± 0.833%. The compound further yielded an inhibition at 100 µM on hMAO-B (10^−4 M) of 21.9 ± 0.416%. This compound also yielded an inhibition at 1000 µM on hMAO-A (10^−3 M) of 30.5 ± 0.817%. Testing at 100 µM on hMAO-A (10^−4 M) gave an inhibition of 26.7 ± 0.748%.
The like results for `Fc1ccc(Sc2ccc(C=NNc3ccccc3)cc2)cc1` [Compound 2h, 1-(4-((4-Fluorophenyl)thio)benzylidene)-2-phenylhydrazine] were, in that order, 132.3 to 133.9 °C, 30.2 ± 0.574%, 24.1 ± 0.355%, 28.6 ± 0.57% and 21 ± 0.548%.
The like results for `C(=NNc1ccccc1)c1ccc(-n2ccnc2)cc1` [Compound 2i, 1-(4-(1-Imidazolyl)benzylidene)-2-phenylhydrazine] were, in that order, 201.9 to 208.9 °C, 38.2 ± 1.09%, 30.7 ± 0.707%, 40.9 ± 0.9% and 18.3 ± 0.618%.
As for `COc1ccc(Oc2ccc(C=NNc3ccccc3)cc2)cc1` [Compound 2e, 1-(4-(4-Methoxyphenoxy)benzylidene)-2-phenylhydrazine], the melting point fell in the range of 170.9 to 174.9 °C. Also, at hMAO-B (10^−3 M), the inhibition at 1000 µM turned out to be 26.5 ± 0.478%. This compound gave an inhibition at 100 µM against hMAO-B (10^−4 M) of 19.4 ± 0.327%. Moreover, at 1000 µM the inhibition against hMAO-A (10^−3 M) was 32.5 ± 0.844%. The compound further displayed an inhibition at 100 µM against hMAO-A (10^−4 M) of 25 ± 0.425%.
In turn, `C(=NNc1ccccc1)c1ccc(N2CCN(c3ccccc3)CC2)cc1` [Compound 2c, 1-(4-(4-Phenylpiperazine-1-yl)benzylidene)-2-phenylhydrazine] showed a melting point of 149.4 to 160.9 °C. For the same compound, the inhibition at 1000 µM at hMAO-B (10^−3 M) worked out at 38.5 ± 0.732%. Further, testing at 100 µM at hMAO-B (10^−4 M) gave an inhibition of 34.7 ± 0.556%. At hMAO-A (10^−3 M), this compound gave an inhibition at 1000 µM of 70.9 ± 1.06%. Further, the inhibition at 100 µM on hMAO-A (10^−4 M) was determined as 43.2 ± 0.861%.
Turning to `CN(C)CCN1CCN(c2ccc(C=NNc3ccccc3)cc2)CC1` [Compound 2m], the “MAO-B Inhibition %” value on hMAO-B (10^−3 M) was 41.072 ± 0.732%; on hMAO-B (10^−4 M) it was 27.607 ± 0.961%. Moreover, the “MAO-A Inhibition %” value came to 68.276 ± 1.048% at hMAO-A (10^−3 M) and 39.471 ± 0.719% at hMAO-A (10^−4 M).
`COc1ccc(N2CCN(c3ccc(C=NNc4ccccc4)cc3)CC2)cc1` [Compound 2d, 1-(4-(4-(4-Methoxyphenyl)piperazine-1-yl)benzylidene)-2-phenylhydrazine]: the melting point fell in the range of 141.2 to 150.4 °C. For the same compound, the inhibition at 1000 µM on hMAO-B (10^−3 M) is 39.2 ± 0.863%. At hMAO-B (10^−4 M), this compound came in with an inhibition at 100 µM of 30.6 ± 0.613%. For the same compound, at hMAO-A (10^−3 M), at 1000 µM the inhibition was 68.6 ± 1.5%. Moreover, testing at 100 µM on hMAO-A (10^−4 M) gave an inhibition of 40.2 ± 0.97%.
The like results for `Clc1ccc(Sc2ccc(C=NNc3ccccc3)cc2)cc1` [Compound 2k, 1-(4-((4-Chlorophenyl)thio)benzylidene)-2-phenylhydrazine] were, in that order, 164.4 to 165.7 °C, 36.3 ± 0.774%, 19 ± 0.825%, 29.2 ± 0.672% and 21.5 ± 0.468%.
For `C(=NNc1ccccc1)c1ccc(N2CCC(Cc3ccccc3)CC2)cc1` [Compound 2l, 1-(4-(Benzylpiperidine)benzylidene)-2-phenylhydrazine], the figures for the “MAO-B Inhibition %” value at hMAO-B (10^−3 M) and at hMAO-B (10^−4 M) were 45.194 ± 0.692% and 28.560 ± 0.629%, respectively. Moreover, the “MAO-A Inhibition %” value at hMAO-A (10^−3 M) is reported as 74.251 ± 1.614%; at hMAO-A (10^−4 M), 44.828 ± 0.917%.
On hMAO-A (10^−4 M), `O=C(NCCN1CCOCC1)c1ccc(Cl)cc1` [Moclobemide, reference compound] came in with an inhibition at 100 µM of 82.1 ± 2.69%. The inhibition at 10 µM on hMAO-A (10^−5 M) was found to be 60.5 ± 2.56%. At hMAO-A (10^−6 M), the inhibition at 1 µM is 36.2 ± 1.98%. At hMAO-A (10^−7 M), this compound displayed an inhibition at 0.1 µM of 22.1 ± 1.34%. Also, on hMAO-A (10^−8 M), the inhibition at 0.01 µM was found to be 18.2 ± 0.812%. Testing at 0.001 µM against hMAO-A (10^−9 M) gave an inhibition of 14.1 ± 0.725%.
As for `C(=NNc1ccccc1)c1ccc(-n2cncn2)cc1` [Compound 2j, 1-(4-(1H-1,2,4-triazole-1-yl)benzylidene)-2-phenylhydrazine], the melting point fell in the range of 127.4 to 132.2 °C. Besides, at 1000 µM the inhibition on hMAO-B (10^−3 M) was 27.5 ± 0.633%. Moreover, the inhibition at 100 µM on hMAO-B (10^−4 M) came to 22.1 ± 0.419%. The compound also showed an inhibition at 1000 µM against hMAO-A (10^−3 M) of 38.6 ± 0.743%. This compound also showed an inhibition at 100 µM on hMAO-A (10^−4 M) of 33 ± 0.66%.
